Results as given in publication PMC8330757, “Design and characterisation of piperazine-benzofuran integrated dinitrobenzenesulfonamide as Mycobacterium tuberculosis H37Rv strain inhibitors” (Journal of Enzyme Inhibition and Medicinal Chemistry, 2021).
In brackets after ≈: the same amount, converted by molar mass. Read-outs that look alike come from different tables or passages of the source.

What was measured:
Mtb H37Rv (ATCC27294) = assay: In vitro anti-TB activity (MIC) against Mtb H37Rv; format: cell-based, Mycobacterium tuberculosis; settings: for MIC: Mycobacterium tuberculosis, read-out: Anti-TB (MIC)
[1] = In vitro cytotoxicity, MTT assay; format: cell-based, human; settings: human, A549 cells, read-out: Human cell lines A549 IC50 approximation
Experimental: (§1) The safety profile of the active hybrids was also accessed by testing in vitro cytotoxicity against human cell-line A549 cells at 50 μg/mL concentration by (4,5-dimethylthiazol-2-yl)-2,5-diphenyltetrazolium bromide (MTT) assay. […]
(§2) completion of starting material and formation of polar spot. The reaction mixture was concentrated to dry to give 7a-7d, used directly in next step.
(§3) 1.2. In-vitro Mtb MABA assay
(§4) Briefly, the inoculum was prepared from fresh LJ medium re -suspended in 7H9-S medium (7H9 broth, 0.1% casitone, 0.5% glycerol, supplemented oleic acid, albumin, dextrose, and catalase [OADC]), adjuste d to an OD590 1.0, and diluted 1:20; 100 µl was used as inoculum. Each drug stock solution was thawed and diluted in 7H9 -S at four-fold the final highest concentration tested. Serial two-fold dilutions of each drug were prepared directly in a sterile 96 -well microtiter plate using 100 µl 7H9 -S. A growth control containing no antibiotic and a sterile control were also prepared on each plate. Sterile water was added to all perimeter wells to avoid evaporation during the incubation. The plate was covered, seal ed in plastic bags and incubated at 37 °C in normal atmosphere. After 7 days incubation, 30 µl of Alamar blue solution was added to each well, and the plate was re -incubated overnight. A change in colour from blue (oxidised state) to pink (reduced) indicat ed the growth of bacteria, and the MIC was defined as the lowest concentration of drug that prevented this change in colour. […]
(§5) the concentration of […]. After 72 h of exposure, viability was assessed on the basis of cellular conversion of MTT into a formazan product using the Promega Cell Titer 96 non - radioactive cell proliferation assay.
(§6) 1.4. DPPH radical scavenging activity
(§7) The hydrogen atom or electron donation ability of some compounds were measured from the bleaching of the purple colored methanol solution of […] (DPPH). The spectrophotometric assay uses the stable radical DPPH as a reagent. 1 mL of various concentrations of the test compounds (5, 10, 25, 50 and 100 μg/mL) in methanol was added to 4 mL of 0.004% (w/v) methanol solution of DPPH. The reaction mixture was incubated at 37 °C.
(§8) The scavenging activity on DPPH was determined by measuring the absorbance at 517 nm after 30 min. All tests were performed in triplicate and the mean values were entered. The percent of inhibition (I %) of free radical production from DPPH was calculated by the following equation % of scavenging = [(A control – A sample)/ […]]. Where, A control is the […]

[2] = system: human cell-line A549 cells; assay: In vitro cytotoxicity, MTT assay; format: cell-based; settings: 50 μg/mL, 72 h exposure
Experimental: as §1, §2, §3, §4, §5, §6, §7, §8

[3] = DPPH radical scavenging assay; settings: absorbance at 517 nm after 30 min
Experimental: In TB, oxidative stress may result in tissue inflammation due to anti-TB drugs. The synthesised compounds have shown promising anti-TB activity and have the potential to develop as lead compounds. Therefore, it is necessary to evaluate the synthesised compounds for their antioxidant activity. Antioxidant activities of the synthesised compounds were measured using 2,2-diphenyl-1-picrylhydrazyl (DPPH) radical scavenging assay. DPPH radical scavenging activity is the most commonly used method for screening the antioxidant activities of the various natural as well as synthetic antioxidants. A lower IC50 value indicates greater antioxidant activity. […]
as §2, §3, §4, §5, §6, §7, §8

[4] = Mtb H37Rv, most active compounds tested in triplicates

Row | Compound | MIC (Mtb H37Rv (ATCC27294)) | IC50 at 72 h [1] | % Cell inhibition at 50 μg/mL [2] | DPPH IC50 [3] | Anti-TB (MIC) (Mtb H37Rv (ATCC27294); [4]) | MIC (Mtb H37Rv (ATCC27294); [4])
1 | NC(=O)c1cc2cc(N3CCN(S(=O)(=O)c4ccc([N+](=O)[O-])cc4[N+](=O)[O-])CC3)ccc2o1 [Compound 4m, 5-(4-((2,4-dinitrophenyl)sulphonyl)piperazin-1-yl)benzofuran-2-carboxamide] | 25 µg/mL (≈ 52.6 µM) | > 50 µg/mL | 23.65% | 45.44 µg/mL |  | 
2 | CN1CCN(C(=O)c2cc3cc(N4CCN(S(=O)(=O)c5ccc([N+](=O)[O-])cc5[N+](=O)[O-])CC4)ccc3o2)CC1 [Compound 4p, (5-(4-((2,4-dinitrophenyl)sulphonyl)piperazin-1-yl)benzofuran-2-yl)(4-methylpiperazin-1-yl) methanone] | 6.25 µg/mL (≈ 11.2 µM) | > 50 µg/mL | 30.18% | 48.66 µg/mL |  | 
3 | CCOC(=O)c1cc2cc(N3CCN(C(=O)[C@@H]4CCCN4S(=O)(=O)c4ccc([N+](=O)[O-])cc4[N+](=O)[O-])CC3)ccc2o1 [Compound 4g, (S)-ethyl 5-(4-(1-((2,4-dinitrophenyl)sulphonyl)pyrrolidine-2-carbonyl)piperazin-1-yl)benzofuran-2-carboxylate] | 6.25 µg/mL (≈ 10.4 µM) | > 50 µg/mL | 29.64% | 55.25 µg/mL |  | 
4 | CCOC(=O)c1cc2cc(N3CCN(C(=O)C4CCN(S(=O)(=O)c5ccc([N+](=O)[O-])cc5[N+](=O)[O-])C4)CC3)ccc2o1 (stereo not drawn) [Compound 4i, ethyl 5-(4-(1-((2,4-dinitrophenyl)sulphonyl)pyrrolidine-3-carbonyl)piperazin-1-yl)benzofuran-2-carboxylate] | 6.25 µg/mL (≈ 10.4 µM) | > 50 µg/mL | 19.38% | 52.44 µg/mL |  | 
5 | O=C1O[C@H]([C@@H](O)CO)C(O)=C1O [Ascorbic acid, reference compound] |  |  |  | 12.7 µg/mL |  | 
6 | CCOC(=O)c1cc2cc(N3CCN(C(=O)C4CCN(S(=O)(=O)c5ccc([N+](=O)[O-])cc5[N+](=O)[O-])CC4)CC3)ccc2o1 [Compound 4e, ethyl 5-(4-(1-((2,4-dinitrophenyl)sulphonyl)piperidine-4-carbonyl)piperazin-1-yl)benzofuran-2-carboxylate] | 1.56 ± 0.97 µg/mL (≈ 2.53 µM) | > 50 µg/mL | 18.95% | 45.21 µg/mL |  | 
7 | CCOC(=O)c1cc2cc(N3CCN(C(=O)C(C)(C)NS(=O)(=O)c4ccc([N+](=O)[O-])cc4[N+](=O)[O-])CC3)ccc2o1 [Compound 4j, ethyl 5-(4-(2-(2,4-dinitrophenylsulfonamido)-2-methylpropanoyl)piperazin-1-yl)benzofuran-2-carboxylate] | 0.78 ± 0.48 µg/mL (≈ 1.32 µM) | > 50 µg/mL | 39.28% | 20.43 µg/mL | 0.78 µg/mL | 
8 | CCOC(=O)c1cc2cc(N3CCN(C(=O)CCCNS(=O)(=O)c4ccc([N+](=O)[O-])cc4[N+](=O)[O-])CC3)ccc2o1 [Compound 4d, ethyl 5-(4-(4-(2,4-dinitrophenylsulfonamido)butanoyl)piperazin-1-yl) benzofuran-2-carboxylate] | 1.56 ± 0.36 µg/mL (≈ 2.65 µM) | > 50 µg/mL | 35.95% | 33.50 µg/mL |  | 
9 | NNC(=O)c1ccncc1 [Isoniazid, reference compound] |  |  |  |  | 0.05 µg/mL | 0.05 ± 0.02 µg/mL (≈ 0.365 µM)
10 | CCOC(=O)c1cc2cc(N3CCN(C(=O)C(NS(=O)(=O)c4ccc([N+](=O)[O-])cc4[N+](=O)[O-])c4ccccc4)CC3)ccc2o1 (stereo not drawn) [Compound 4k, ethyl 5-(4-(2-(2,4-dinitrophenylsulfonamido)-2-phenylacetyl)piperazin-1-yl) benzofuran-2-carboxylate] | > 25 µg/mL | > 50 µg/mL | 22.55% | 45.87 µg/mL |  | 
11 | CCOC(=O)c1cc2cc(N3CCN(S(=O)(=O)c4ccc([N+](=O)[O-])cc4[N+](=O)[O-])CC3)ccc2o1 [Compound 4a, ethyl 5-(4-(2,4-dintrobenzenesulfonyl)piperazin-1-yl)benzofuran-2-carboxylate] | 0.78 ± 0.36 µg/mL (≈ 1.55 µM) | > 50 µg/mL | 20.80% | 15.25 µg/mL | 0.78 µg/mL | 
12 | O=C(Nc1ccccc1)c1cc2cc(N3CCN(S(=O)(=O)c4ccc([N+](=O)[O-])cc4[N+](=O)[O-])CC3)ccc2o1 [Compound 4n, 5-(4-((2,4-dinitrophenyl)sulphonyl)piperazin-1-yl)-N-phenylbenzofuran-2-carboxamide] | 3.12 ± 1.1 µg/mL (≈ 5.66 µM) | > 50 µg/mL | 27.98% | 40.64 µg/mL |  | 
13 | CCOC(=O)c1cc2cc(N3CCN(C(=O)C4CCCN(S(=O)(=O)c5ccc([N+](=O)[O-])cc5[N+](=O)[O-])C4)CC3)ccc2o1 (stereo not drawn) [Compound 4f, ethyl 5-(4-(1-((2,4-dinitrophenyl)sulphonyl)piperidine-3-carbonyl)piperazin-1-yl)benzofuran-2-carboxylate] | 1.56 ± 0.73 µg/mL (≈ 2.53 µM) | > 50 µg/mL | 22.75% | 39.01 µg/mL |  | 
14 | CC[C@@H](CO)NCCN[C@@H](CC)CO [Ethambutol, reference compound] |  |  |  |  | 1.56 µg/mL | 1.56 ± 0.76 µg/mL (≈ 7.64 µM)
15 | CO[C@H]1/C=C/O[C@@]2(C)Oc3c(C)c(O)c4c(O)c(c(/C=N/N5CCN(C)CC5)c(O)c4c3C2=O)NC(=O)/C(C)=C\C=C\[C@H](C)[C@H](O)[C@@H](C)[C@@H](O)[C@@H](C)[C@H](OC(C)=O)[C@@H]1C [Rifampicin, reference compound] |  |  |  |  | 0.1 µg/mL | 0.1 ± 0.04 µg/mL (≈ 0.122 µM)
16 | O=C(c1cc2cc(N3CCN(S(=O)(=O)c4ccc([N+](=O)[O-])cc4[N+](=O)[O-])CC3)ccc2o1)N1CCCCC1 [Compound 4o, (5-(4-((2,4-dinitrophenyl)sulphonyl)piperazin-1-yl)benzofuran-2-yl) (piperidin-1-yl)methanone] | 1.56 ± 0.36 µg/mL (≈ 2.87 µM) | > 50 µg/mL | 31.58% | 19.27 µg/mL | 1.56 µg/mL | 
17 | CCOC(=O)c1cc2cc(N3CCN(C(=O)CNS(=O)(=O)c4ccc([N+](=O)[O-])cc4[N+](=O)[O-])CC3)ccc2o1 [Compound 4b, ethyl 5-(4-(2-(2,4-dinitrophenylsulfonamido)acetyl)piperazin-1-yl)benzofuran-2-carboxylate] | 3.12 ± 1.47 µg/mL (≈ 5.56 µM) | > 50 µg/mL | 37.41% | 50.33 µg/mL |  | 
18 | CCOC(=O)c1cc2cc(N3CCN(C(=O)[C@H]4CCCN4S(=O)(=O)c4ccc([N+](=O)[O-])cc4[N+](=O)[O-])CC3)ccc2o1 [Compound 4h, (R)-ethyl 5-(4-(1-((2,4-dinitrophenyl)sulphonyl)pyrrolidine-2-carbonyl)piperazin-1-yl)benzofuran-2-carboxylate] | > 25 µg/mL | > 50 µg/mL | 33.08% | 49.75 µg/mL |  | 
